From US20210395256A1, “TYROSINE KINASE INHIBITORS, COMPOSITIONS AND METHODS THERE OF” (Betta Pharmaceuticals Co., Ltd., priority 2018, published 2021)
Counter-ions that a name gives are not always drawn.

Each molecule was assayed against TrkA kinase (Homo sapiens, UniProt P04629) (assay: TrkA kinase assay (mobility shift assay)). Settings: class symbols; read-out: Trk A Kinase IC50.
Sequence of TrkA kinase (P04629 33-796): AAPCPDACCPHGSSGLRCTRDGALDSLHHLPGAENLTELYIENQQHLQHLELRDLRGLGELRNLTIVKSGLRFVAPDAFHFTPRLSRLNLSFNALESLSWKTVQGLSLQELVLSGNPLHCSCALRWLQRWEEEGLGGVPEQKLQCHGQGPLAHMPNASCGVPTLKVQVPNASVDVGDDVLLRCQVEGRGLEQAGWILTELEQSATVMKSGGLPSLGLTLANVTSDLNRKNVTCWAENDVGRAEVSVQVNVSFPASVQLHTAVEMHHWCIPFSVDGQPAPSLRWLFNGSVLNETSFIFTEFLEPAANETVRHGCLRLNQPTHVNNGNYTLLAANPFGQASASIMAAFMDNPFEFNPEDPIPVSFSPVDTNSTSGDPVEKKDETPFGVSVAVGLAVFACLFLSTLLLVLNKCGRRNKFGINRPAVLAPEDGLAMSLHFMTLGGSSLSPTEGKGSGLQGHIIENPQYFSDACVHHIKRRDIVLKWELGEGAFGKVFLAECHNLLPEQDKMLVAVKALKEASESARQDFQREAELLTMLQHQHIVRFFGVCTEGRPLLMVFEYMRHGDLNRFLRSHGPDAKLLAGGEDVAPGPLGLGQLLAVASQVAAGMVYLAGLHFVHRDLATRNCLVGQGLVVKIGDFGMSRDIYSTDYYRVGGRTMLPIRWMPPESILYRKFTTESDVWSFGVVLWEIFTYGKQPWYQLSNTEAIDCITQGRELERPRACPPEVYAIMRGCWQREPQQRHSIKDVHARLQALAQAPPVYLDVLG
Format: biochemical
Method: Example 201 TrkA Kinase Assay
Mobility shift assay was used to determine the inhibitory activity of compounds against TrkA kinase. Assay procedures are as follows:
1× Kinase base buffer (50 mM HEPES, pH 7.5; 0.0015% Brij-35)
Stop buffer (100 mM HEPES, pH 7.5; 0.015% Brij-35; 0.2% Coating Reagent #3; 50 mM EDTA)
1) Dilute the compound to 50× of the final desired highest inhibitor concentration in reaction by 100% DMSO. Transfer 100 μl of this compound dilution to a well in a 96-well plate.
2) For all compounds, transfer the compound in tubes to one well on 96-well storage plate and serially dilute the compound by transferring 30 μl to 60 μl of 100% DMSO in the next well and so forth for a total of 10 concentrations.
3) Add 100 μl of 100% DMSO to two empty wells for no compound control and no enzyme control in the same 96-well plate. Mark the plate as source plate.
4) Prepare intermediate plate
Transfer 10 μl of compound from source plate to a new 96-well plate as the intermediate plate
Add 90 µl of 1× kinase buffer to each well of the intermediate plate.
Mix the compounds in intermediate plate for 10 min on shaker.
1) Transfer 5 μl of each well from the 96-well intermediate plate to a 384-well plate in duplicates. For example, A1 of the 96-well plate is transferred to A1 and A2 of the 384-well plate. A2 of the 96-well plate is transferred to A3 and A4 of the 384-well plate, and so on.
1) Prepare 2.5× enzyme solution
Add kinase in 1× kinase base buffer.
2) Prepare 2.5× peptide solution Add FAM-labeled peptide and ATP in the 1× kinase base buffer.
3) Assay plate already contains 5 μl of compound in 10% DMSO.
4) Transfer 2.5× enzyme solution to the assay plate
Add 10 μl of 2.5× enzyme solution to each well of the 384-well assay plate.
5) Incubate at room temperature for 10 min.
6) Transfer 2.5× peptide solution to the assay plate
Add 10 μl of 2.5× peptide solution to each well of the 384-well assay plate.
Kinase reaction conditions are shown as Table 11:
7) Kinase reaction and stop
Incubate at 28° C. for specified period of time.
Add 25 μl of stop buffer to stop reaction.
1) Copy conversion data from Caliper program.
2) Convert conversion values to inhibition values.
Percent inhibition=(max-conversion)/(max-min)*100.
“max” stands for DMSO control; “min” stands for low control.
3) Fit the data in XLFit excel add-in version 5.4.0.8 to obtain IC50 values.
Equation used is: Y=Bottom+(Top-Bottom)/(1+(IC50/X)^HillSlope)
`C#CC(O)c1nnc(-c2cnn3ccc(N4CCC[C@@H]4c4cc(F)ccc4F)nc23)[nH]1` (stereo partly drawn) [Compound 48, 1-(5-(5-((R)-2-(2,5-difluorophenyl)pyrrolidin-1-yl)pyrazolo[1,5-a]pyrimidin-3-yl)-4H-1,2,4-triazol-3-yl)prop-2-yn-1-ol] gave an IC50 of no more than 10 nM. In the case of `CC(C)[C@H](N)C(=O)N[C@H](C(=O)O[C@@H](C)c1nnc(-c2cnn3ccc(N4CCC[C@@H]4c4cc(F)ccc4F)nc23)[nH]1)C(C)C` [Compound 55, (S)-1-(5-(5-((R)-2-(2,5-difluorophenyl)pyrrolidin-1-yl)pyrazolo[1,5-a]pyrimidin-3-yl)-4H-1,2,4-triazol-3-yl)ethyl L-valylvalinate hydrochloride], the IC50 is reported as 10 to 50 nM. Molecule `Fc1ccc(F)c([C@H]2CCCN2c2ccn3ncc(-c4nnc(-c5ccc(Oc6ccccc6)cc5)[nH]4)c3n2)c1` [Compound 58, (R)-5-(2-(2,5-difluorophenyl)pyrrolidin-1-yl)-3-(5-(4-phenoxyphenyl)-4H-1,2,4-triazol-3-yl)pyrazolo[1,5-a]pyrimidine] has an IC50 greater than 50 nM. Molecule `Fc1ccc(F)c([C@H]2CCCN2c2ccn3ncc(-c4nnc(-c5ccc6cn[nH]c6c5)[nH]4)c3n2)c1` [Compound 59, (R)-3-(5-(1H-indazol-6-yl)-4H-1,2,4-triazol-3-yl)-5-(2-(2,5-difluorophenyl)pyrrolidin-1-yl)pyrazolo[1,5-a]pyrimidine] has an IC50 of no more than 10 nM. Molecule `O[C@@H]1C[C@](O)(c2nnc(-c3cnn4ccc(N5CCC[C@@H]5c5cc(F)ccc5F)nc34)[nH]2)C[C@@H](O)[C@H]1O` [Compound 60, (1R,2S,3R,5S)-5-(5-(5-((R)-2-(2,5-difluorophenyl)pyrrolidin-1-yl)pyrazolo[1,5-a]pyrimidin-3-yl)-4H-1,2,4-triazol-3-yl)cyclohexane-1,2,3,5-tetraol] has an IC50 of 10 to 50 nM. `Fc1ccc(F)c([C@H]2CCCN2c2ccn3ncc(-c4nnc(-c5ccc6c(c5)OCC6)[nH]4)c3n2)c1` [Compound 61, (R)-5-(2-(2,5-difluorophenyl)pyrrolidin-1-yl)-3-(5-(2,3-dihydrobenzofuran-6-yl)-4H-1,2,4-triazol-3-yl)pyrazolo[1,5-a]pyrimidine] showed an IC50 of no more than 10 nM. `Fc1ccc(F)c([C@H]2CCCN2c2ccn3ncc(-c4nc5ccc(N6CCN7CCC[C@@H]7C6)cc5[nH]4)c3n2)c1` [Compound 62, 5-((R)-2-(2,5-difluorophenyl)pyrrolidin-1-yl)-3-(6-((R)-hexahydropyrrolo[1,2-a]pyrazin-2(1H)-yl)-1H-benzo[d]imidazol-2-yl)pyrazolo[1,5-a]pyrimidine] was tested, and the IC50 was greater than 50 nM. `Fc1ccc(F)c([C@H]2CCCN2c2ccn3ncc(-c4nc5ccc(N6CCN7CCC[C@@H]7C6)cc5s4)c3n2)c1` [Compound 63, 2-(5-((R)-2-(2,5-difluorophenyl)pyrrolidin-1-yl)pyrazolo[1,5-a]pyrimidin-3-yl)-6-((R)-hexahydropyrrolo[1,2-a]pyrazin-2(1H)-yl)benzo[d]thiazole] was tested, and the IC50 was greater than 50 nM. `Fc1ccc(F)c([C@H]2CCCN2c2ccn3ncc(-c4nc5cnc(N6CCOCC6)cc5[nH]4)c3n2)c1` [Compound 64, (R)-4-(2-(5-(2-(2,5-difluorophenyl)pyrrolidin-1-yl)pyrazolo[1,5-a]pyrimidin-3-yl)-1H-imidazo[4,5-c]pyridin-6-yl)morpholine] showed an IC50 greater than 50 nM. Molecule `COc1cc2nc(-c3cnn4ccc(N5CCC[C@@H]5c5cc(F)ccc5F)nc34)[nH]c2cc1C(C)O` (stereo partly drawn) [Compound 66, 1-(2-(5-((R)-2-(2,5-difluorophenyl)pyrrolidin-1-yl)pyrazolo[1,5-a]pyrimidin-3-yl)-5-methoxy-1H-benzo[d]imidazol-6-yl)ethan-1-ol] has an IC50 of no more than 10 nM. `CC(O)c1ccc2nc(-c3cnn4ccc(N5CCC[C@@H]5c5cc(F)ccc5F)nc34)oc2c1` (stereo partly drawn) [Compound 68, 1-(2-(5-((R)-2-(2,5-difluorophenyl)pyrrolidin-1-yl)pyrazolo[1,5-a]pyrimidin-3-yl)benzo[d]oxazol-6-yl)ethan-1-ol] gave an IC50 of no more than 10 nM. `OCc1ccc2nc(-c3cnn4ccc(N5CCC[C@@H]5c5cc(F)ccc5F)nc34)oc2c1` [Compound 69, (R)-(2-(5-(2-(2,5-difluorophenyl)pyrrolidin-1-yl)pyrazolo[1,5-a]pyrimidin-3-yl)benzo[d]oxazol-6-yl)methanol] was tested, and the IC50 was no more than 10 nM.

Same assay, conditions: numeric values; read-out: Trk A Kinase IC50
In the case of `Fc1ccc(F)c([C@H]2CCCN2c2ccn3ncc(-c4nnc(C5COCCN5)[nH]4)c3n2)c1` (stereo partly drawn) [Compound 49, 3-(5-(5-((R)-2-(2,5-difluorophenyl)pyrrolidin-1-yl)pyrazolo[1,5-a]pyrimidin-3-yl)-4H-1,2,4-triazol-3-yl)morpholine], the IC50 is reported as 6.4 nM. For `Fc1ccc(F)c([C@H]2CCCN2c2ccn3ncc(-c4nnc(-c5ccc6[nH]ccc6c5)[nH]4)c3n2)c1` [Compound 50, (R)-3-(5-(1H-indol-5-yl)-4H-1,2,4-triazol-3-yl)-5-(2-(2,5-difluorophenyl)pyrrolidin-1-yl)pyrazolo[1,5-a]pyrimidine], the IC50 was 2.65 nM. In the case of `CC(C)C[C@H](N)C(=O)O[C@@H](C)c1nnc(-c2cnn3ccc(N4CCC[C@@H]4c4cc(F)ccc4F)nc23)[nH]1` [Compound 51, (S)-1-(5-(5-((R)-2-(2,5-difluorophenyl)pyrrolidin-1-yl)pyrazolo[1,5-a]pyrimidin-3-yl)-4H-1,2,4-triazol-3-yl)ethyl L-leucinate hydrochloride], the IC50 is reported as 3 nM. `OCC(F)c1nnc(-c2cnn3ccc(N4CCC[C@@H]4c4cc(F)ccc4F)nc23)[nH]1` (stereo partly drawn) [Compound 52, 2-(5-(5-((R)-2-(2,5-difluorophenyl)pyrrolidin-1-yl)pyrazolo[1,5-a]pyrimidin-3-yl)-4H-1,2,4-triazol-3-yl)-2-fluoroethan-1-ol] showed an IC50 of 1.66 nM. Work on `OC1(c2nnc(-c3cnn4ccc(N5CCC[C@@H]5c5cc(F)ccc5F)nc34)[nH]2)CC1` [Compound 53, (R)-1-(5-(5-(2-(2,5-difluorophenyl)pyrrolidin-1-yl)pyrazolo[1,5-a]pyrimidin-3-yl)-4H-1,2,4-triazol-3-yl)cyclopropan-1-ol] yielded an IC50 of 1.4 nM. Work on `CN1CCN(c2ccc(-c3nnc(-c4cnn5ccc(N6CCC[C@@H]6c6cc(F)ccc6F)nc45)[nH]3)cn2)CC1` [Compound 54, (R)-5-(2-(2,5-difluorophenyl)pyrrolidin-1-yl)-3-(5-(6-(4-methylpiperazin-1-yl)pyridin-3-yl)-4H-1,2,4-triazol-3-yl)pyrazolo[1,5-a]pyrimidine] yielded an IC50 of 1.17 nM. In the case of `Fc1ccc(F)c([C@H]2CCCN2c2ccn3ncc(-c4nnc(-c5ccc6ncccc6c5)[nH]4)c3n2)c1` [Compound 56, (R)-6-(5-(5-(2-(2,5-difluorophenyl)pyrrolidin-1-yl)pyrazolo[1,5-a]pyrimidin-3-yl)-4H-1,2,4-triazol-3-yl)quinoline], the IC50 is reported as 1.2 nM. `Fc1ccc(F)c([C@H]2CCCN2c2ccn3ncc(-c4nnc(-c5ccc6nc[nH]c6c5)[nH]4)c3n2)c1` [Compound 57, (R)-3-(5-(1H-benzo[d]imidazol-6-yl)-4H-1,2,4-triazol-3-yl)-5-(2-(2,5-difluorophenyl)pyrrolidin-1-yl)pyrazolo[1,5-a]pyrimidine] was tested, and the IC50 was 0.6 nM. `COc1cc2nc(-c3cnn4ccc(N5CCC[C@@H]5c5cc(F)ccc5F)nc34)[nH]c2cc1CO` [Compound 67, (R)-(2-(5-(2-(2,5-difluorophenyl)pyrrolidin-1-yl)pyrazolo[1,5-a]pyrimidin-3-yl)-5-methoxy-1H-benzo[d]imidazol-6-yl)methanol] was tested, and the IC50 was 0.32 nM.
